Consider 16 molecules from ChEMBL document CHEMBL1221345, “Cytotoxic flavonoids from the leaves of Cryptocarya chinensis” (J Nat Prod, 2010).

What all share (type): functional, cell-based
The test system of one assay is SF-268. Description: Cytotoxicity against human SF268 cells after 72 hrs by MTS reduction assay. Conditions: SF-268, 72 h.
The subject of the next assay is MCF7. As to the kind of experiment: Cytotoxicity against human MCF7 cells after 72 hrs by MTS reduction assay. Conditions: MCF7, 72 h.
The test system of a further assay is NCI-H460. Description: Cytotoxicity against human NCI-H460 cells after 72 hrs by MTS reduction assay. Conditions: NCI-H460, 72 h. In general terms: Tetrazolium assays rely on reduction of a dye to a coloured formazan, in cell work by metabolically active cells.
A further assay relates to KB. As to the kind of experiment: Cytotoxicity against human KB cells.

*1 amine or outer side, *2 acyl side, *3 side chain or, on linkers, in order; H or OH if unused. Where a SMILES comes first, the peptide text is derived from it. Bridges are numbered along the chain shown (N, C = ends). Roman numbers before positions name the chains, in order. [ ]: non-standard residue; d: D form. Actinocin(1to9) = Cc1c2oc3c(C)ccc(C(=O)[*:2])c3nc-2c(C(=O)[*:1])c(N)c1=O; NMeV = CN[C@H](C(=O)O)C(C)C; Sar = CNCC(=O)O

For orientation: IC50 means the concentration at which inhibition is half-maximal. High values mean weaker potency, low ones greater potency. For the molecule `COc1cc(O)c2c(=O)c(OC)c(-c3ccccc3)oc2c1`, the IC50 with SF-268, in the assay on MCF7 and with NCI-H460 was more than 50 µM throughout.
For the molecule `CO[C@@H]1CC2=C(C(=O)CC(c3ccccc3)O2)[C@H]2CC(=O)O[C@H]21` (stereo not given in full), the IC50 with SF-268, with MCF7 and in the assay with NCI-H460 was more than 50 µM throughout.
For `COc1cc(O)c2c(=O)c(OC)c(-c3ccccc3)oc2c1OC`, the IC50 in the assay on SF-268, with MCF7 and in the assay on NCI-H460 was more than 50 µM throughout.
`CC1=C(C)C(=O)C(CC[C@](C)(O)CCC[C@H](C)CCC[C@H](C)CCCC(C)C)=C(C)C1=O`: the IC50 was more than 50 µM with SF-268, more than 50 µM in the assay on MCF7 and 37.3 µM in the assay on NCI-H460.
As for `CC(C)=CCC/C(C)=C/CC/C(C)=C/CC/C=C(\C)CC/C=C(\C)CCC=C(C)C`, the IC50 in the assay on SF-268, in the assay with MCF7 and in the assay on NCI-H460 was more than 50 µM throughout.
In the case of `CO[C@H]1CC2=C(C(=O)C[C@@H](c3ccccc3)O2)[C@H]2CC(=O)O[C@@H]12` [7-O-METHYLCRYPTOCHINONE A], the IC50 in the assay on SF-268, in the assay on MCF7 and with NCI-H460 was more than 50 µM in each case.
For the molecule `CO[C@H]1CC2=C(C(=O)C[C@@H](c3ccccc3)O2)[C@@H]2CC(=O)O[C@H]12` [7-O-METHYLCRYPTOCHINONE B], the IC50 in the assay with SF-268, with MCF7 and with NCI-H460 was more than 50 µM in each case.
Take `O=C1C[C@@H]2C3=C(C=C[C@@H]2O1)O[C@@H](c1ccccc1)CC3=O` [CRYPTOCARYANONE A]: the IC50 in the assay on SF-268 came to 5 µM; with MCF7, 5.1 µM; in the assay on KB, 2.5 µM; with NCI-H460, 4.3 µM.
With `O=C1C[C@@H]2C3=C(C[C@H](O)[C@@H]2O1)O[C@H](c1ccccc1)CC3=O` [CRYPTOCHINONE A], the IC50 with SF-268, in the assay with MCF7 and in the assay with NCI-H460 was more than 50 µM throughout.
Regarding `O=C1C[C@H]2C3=C(C[C@H](O)[C@H]2O1)O[C@H](c1ccccc1)CC3=O` [CRYPTOCHINONE B], the half-maximal inhibitory concentration (IC50) with SF-268, in the assay with MCF7 and in the assay with NCI-H460 was more than 50 µM each time.
In the case of `Cc1c2oc3c(C)ccc(C(=O)N[C@@H]4C(=O)N[C@H](C(C)C)C(=O)N5CCC[C@H]5C(=O)N(C)CC(=O)N(C)[C@@H](C(C)C)C(=O)O[C@@H]4C)c3nc-2c(C(=O)N[C@@H]2C(=O)N[C@H](C(C)C)C(=O)N3CCC[C@H]3C(=O)N(C)CC(=O)N(C)[C@@H](C(C)C)C(=O)O[C@@H]2C)c(N)c1=O` [DACTINOMYCIN] (I: T[dV]P[Sar][NMeV] / II: T[dV]P[Sar][NMeV]; ester I:1-I:C, II:1-II:C; linker I:N-II:N via Actinocin(1to9)), the IC50 in the assay on SF-268 came out at 0.016 µM; with MCF7, 0.103 µM; with NCI-H460 it was 0.008 µM.
As to `COC(=O)C[C@H]1CC=CC(=O)/C1=C(O)/C=C/c1ccccc1` [INFECTOCARYONE], the IC50 is 3.7 µM in the assay with SF-268, 24.3 µM in the assay on MCF7, 1.7 µM with KB and 11 µM with NCI-H460.
Turning to `COc1c(O)ccc(C(=O)/C=C/c2ccccc2)c1O` [LARREIN], the IC50 in the assay with SF-268, in the assay on MCF7 and in the assay on NCI-H460 was more than 50 µM in each case.
`COc1cc2oc(-c3ccccc3)cc(=O)c2c(O)c1OC` [MOSLOFLAVONE]: the IC50 in the assay on SF-268, with MCF7 and in the assay on NCI-H460 was more than 50 µM throughout.
As to `COc1cc(O)c2c(c1)O[C@H](c1ccccc1)CC2=O` [PINOSTROBIN], the IC50 in the assay with SF-268, in the assay with MCF7 and in the assay on NCI-H460 was more than 50 µM throughout.
Turning to `COc1cc(C=O)ccc1O` [VANILLIN], the IC50 in the assay on SF-268, with MCF7 and in the assay on NCI-H460 was more than 50 µM in each case.
